From patent US11191765B2, “Heterocyclic compounds for the inhibition of PASK” (BioEnergenix LLC, priority 2012, dated 2021)

Molecular target: PASK (Invitrogen) (Homo sapiens (Human), UniProt Q96RG2)
Test: PAS Kinase FRET Assay
Format: biochemical
Details: TR-FRET (665 nm/615 nm), Ulight-peptide substrate, 2 hours at 25° C.; read-out: IC50 Kinase Domain
From the text: The aim of the FRET assay is to determine the inhibition potential of test compounds on targeted kinase. This assay platform provides a homogenous screening method for measuring kinase activity by quantitating the amount of phospho-substrate in solution following a kinase reaction.
In the presence of kinase and ATP, the Ulight-peptide is phosphorylated and captured by an anti-phospho-substrate antibody, which brings the Eu chelate donor and Ulight acceptor dyes into close proximity. Upon excitation at 340 nm, the Eu chelate transfers its energy to the Ulight dye, resulting in a fluorescent light emission at 665 nm.
Titration of kinase at 1 mM ATP was achieved via the following protocol. After making serial three-fold dilutions of PASK (Invitrogen) in reaction buffer across the plate; 5 μl of kinase dilution and 5 μl substrate/ATP mix were added to the wells of the white Optiplate-384 (PerkinElmer). The contents of the plate were and incubated at RT for 1 h. The reaction was stopped by adding 5 μl of stop solution to each test well followed by mixing and incubation at RT for 10 minutes. 5 μl of detection mix (detection antibody diluted in detection buffer) was added; the contents of the plate were mixed and then incubated in the dark for 1 hour at RT. The signal was recorded at TR-FRET mode (665 nm/615 nm). The results were graphed to calculate the EC50.
Titration of ATP at the EC50 concentration of kinase to determine ATP Km,app. was performed using the following method. After making serial dilutions of ATP (Invitrogen), 5 μl of ATP dilution and 5 μl substrate/kinase mix were added to the wells of the white Optiplate-384 (PerkinElmer). The contents of the plate were and incubated at RT for 1 h. The reaction was stopped by adding 5 μl of stop solution to each test well followed by mixing and incubation at RT for 10 minutes. 5 μl of detection mix (detection antibody diluted in detection buffer) was added; the contents of the plate were mixed and then incubated in the dark for 1 hour at RT. The signal was recorded at TR-FRET mode (665 nm/615 nm). The results were graphed to calculate the EC50 as the ATP Km,app.
Compound screening was done via the following method. 10 mM stock solution of test compound in DMSO was prepared by dissolving test compound in DMSO at RT for 1 hour, and then sonicating at 100% output for 8 minutes. If compound is not soluble under this condition, it was diluted to 3 mM. Kinase reaction buffer was prepared containing 10 mM MgCl2, 50 mM HEPES, 1 mM EGTA, 0.01% TWEEN-20, 2 mM DTT. Serial dilutions of the test compounds were prepared at 4×final assay concentrations using Freedom EVO200® dispensing system as follows: 12×10^−5 M, 4×10^−5 M, 1.33×10^−5 M, 4.44×10^−6 M, 1.48×10^−6 M, 4.92×10^−7 M, 1.65×10^−7 M, 5.48×10^−7 M, 1.82×10^−8 M, 6.09×10^−9, 2.03×10^−9 M. Test compounds (2.5 μl at 4×the final assay concentration) was added to wells using Freedom EVO200® dispensing system. As a positive control, 2.5 μl of positive compound was added to assay wells, and 2.5 μl of DMSO to assay wells as vehicle control. Kinase solution was prepared in reaction buffer at 2×final assay concentration. Kinase solution (5 μl) was added to each well of the assay plate. The substrate and ATP solution was prepared in kinase reaction buffer at 4×final assay concentration. The kinase reaction was started by adding 2.5 μl of substrate+ATP mix solution to each well of the assay plate. The plate is mixed on a plate shaker; then covered and allowed to react for 2 hours in the dark at 25° C. without shaking. The reaction was stopped by adding 5 μl of stop solution to each test well followed by mixing and incubation at RT for 10 minutes in the dark. 5 μl of detection mix (detection antibody diluted in detection buffer) was added; the contents of the plate were mixed and then incubated in the dark for 1 hour at RT. The signal was recorded at TR-FRET mode (665 nm/615 nm).

Sequence of PASK (Invitrogen) (Q96RG2 999-1251): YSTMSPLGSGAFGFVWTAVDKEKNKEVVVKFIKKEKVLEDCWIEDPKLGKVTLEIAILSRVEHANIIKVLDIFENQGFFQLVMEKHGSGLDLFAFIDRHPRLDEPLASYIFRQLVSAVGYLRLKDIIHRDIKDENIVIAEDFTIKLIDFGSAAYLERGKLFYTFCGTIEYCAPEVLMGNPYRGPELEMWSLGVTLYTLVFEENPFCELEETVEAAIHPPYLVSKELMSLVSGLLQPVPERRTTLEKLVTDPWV

IC50 [µM]	SMILES
≤ 10	O=c1cc(-c2ccc3[nH]ncc3c2)[nH]c2nc(-c3cccc(Cl)c3)nn12 [Example 12, 2-(3-Chlorophenyl)-5-(1H-indazol-5-yl)-[1,2,4]triazolo[1,5-a]pyrimidin-7(4H)-one]
≤ 10	O=c1cc(-c2ccc3c(c2)OCO3)[nH]c2nc(Cc3ccccc3)nn12 [Example 1, 5-(Benzo[d][1,3]dioxol-5-yl)-2-benzyl-[1,2,4]triazolo[1,5-a]pyrimidin-7(4H)-one]
≤ 10	CC(C)c1nc2[nH]c(-c3ccc4[nH]nnc4c3)cc(=O)n2n1 [Example 14, 5-(1H-Benzo[d][1,2,3]triazol-5-yl)-2-isopropyl-[1,2,4]triazolo[1,5-a]pyrimidin-7(4H)-one]
≤ 10	O=c1cc(-c2ccc3c(c2)OCO3)[nH]c2nc(-c3ccccn3)nn12 [Example 29, 5-(Benzo[d][1,3]dioxol-5-yl)-2-(pyridin-2-yl)-[1,2,4]triazolo[1,5-a]pyrimidin-7(4H)-one]
≤ 10	CCc1nc2[nH]c(-c3ccc4[nH]ncc4c3)cc(=O)n2n1 [Example 5, 2-Ethyl-5-(1H-indazol-5-yl)-[1,2,4]triazolo[1,5-a]pyrimidin-7(4H)-one]
≤ 10	Cc1nc2[nH]c(-c3ccc4c(c3)OCCO4)cc(=O)n2n1 [Example 16, 5-(2,3-Dihydrobenzo[b][1,4]dioxin-6-yl)-2-methyl-[1,2,4]triazolo[1,5-a]pyrimidin-7(4H)-one]
≤ 10	CCn1ncc2cc(-c3cc(=O)n4nc(-c5ccccc5Cl)nc4[nH]3)ccc21 [Example 25, 2-(2-chlorophenyl)-5-(1-ethyl-1H-indazol-5-yl)-[1,2,4]triazolo[1,5-a]pyrimidin-7(4H)-one]
≤ 10	NC(=O)c1nc2[nH]c(-c3ccc4nn[nH]c4c3)cc(=O)n2n1 [Example 24, 5-(1H-benzo[d][1,2,3]triazol-6-yl)-7-oxo-4,7-dihydro-[1,2,4]triazolo[1,5-a]pyrimidine-2-carboxamide]
≤ 10	COc1ccc(-c2cc(=O)n3ncnc3[nH]2)cc1 [Example 26, 5-(4-Methoxyphenyl)-[1,2,4]triazolo[1,5-a]pyrimidin-7(4H)-one]
≤ 10	CCn1ncc2cc(-c3cc(=O)n4nc(-c5ccc(F)cc5)nc4[nH]3)ccc21 [Example 21, 5-(1-Ethyl-1H-indazol-5-yl)-2-(4-fluorophenyl)-[1,2,4]triazolo[1,5-a]pyrimidin-7(4H)-one]
≤ 10	O=c1cc(-c2ccc3[nH]nnc3c2)[nH]c2nc(-c3ccccn3)nn12 [Example 2, 5-(1H-Benzo[d][1,2,3]triazol-5-yl)-2-(pyridin-2-yl)-[1,2,4]triazolo[1,5-a]pyrimidin-7(4H)-one]
≤ 10	O=c1cc(-c2ccc3[nH]nnc3c2)[nH]c2nc(Cc3ccccc3)nn12 [Example 45, 5-(1H-Benzo[d][1,2,3]triazol-5-yl)-2-benzyl-[1,2,4]triazolo[1,5-a]pyrimidin-7(4H)-one]
≤ 10	Cc1nc2[nH]c(-c3ccc4[nH]ncc4c3)cc(=O)n2n1 [Example 4, 5-(1H-indazol-5-yl)-2-methyl-[1,2,4]triazolo[1,5-a]pyrimidin-7(4H)-one]
≤ 10	CCc1nc2[nH]c(-c3ccc4[nH]nnc4c3)cc(=O)n2n1 [Example 6, 5-(1H-Benzo[d][1,2,3]triazol-5-yl)-2-ethyl-[1,2,4]triazolo[1,5-a]pyrimidin-7(4H)-one]
≤ 10	Cc1ccccc1-c1nc2[nH]c(-c3ccc4nn[nH]c4c3)cc(=O)n2n1 [Example 23, 5-(1H-benzo[d][1,2,3]triazol-6-yl)-2-o-tolyl-[1,2,4]triazolo[1,5-a]pyrimidin-7(4H)-one]

Second part, the compound before the results:

SMILES	IC50 [µM]
O=c1cc(-c2ccc3[nH]nnc3c2)[nH]c2nc(-c3ccc(F)cc3)nn12 [Example 40, 5-(1H-Benzo[d][1,2,3]triazol-5-yl)-2-(4-fluorophenyl)-[1,2,4]triazolo[1,5-a]pyrimidin-7(4H)-one]	≤ 10
O=c1cc(-c2ccc3[nH]ncc3c2)[nH]c2nc(-c3ccc(Cl)cc3)nn12 [Example 44, 2-(4-Chlorophenyl)-5-(1H-indazol-5-yl)-[1,2,4]triazolo[1,5-a]pyrimidin-7(4H)-one]	≤ 10
O=c1cc(-c2ccc3nn[nH]c3c2)[nH]c2nc(-c3ccccc3Cl)nn12 [Example 22, 5-(1H-Benzo[d][1,2,3]triazol-6-yl)-2-(2-chlorophenyl)-[1,2,4]triazolo[1,5-a]pyrimidin-7(4H)-one]	≤ 10
O=c1cc(-c2ccc3[nH]ncc3c2)[nH]c2nc(-c3ccc(Cl)c(Cl)c3)nn12 [Example 10, 2-(3,4-Dichlorophenyl)-5-(1H-indazol-5-yl)-[1,2,4]triazolo[1,5-a]pyrimidin-7(4H)-one]	≤ 10
O=c1cc(-c2ccc3[nH]ncc3c2)[nH]c2nc(-c3ccc(F)cc3)nn12 [Example 20, 2-(4-Fluorophenyl)-5-(1H-indazol-5-yl)-[1,2,4]triazolo[1,5-a]pyrimidin-7(4H)-one]	≤ 10
O=c1cc(-c2ccc3c(c2)OCCO3)[nH]c2nc(Cc3ccccc3)nn12 [Example 18, 2-Benzyl-5-(2,3-dihydrobenzo[b][1,4]dioxin-6-yl)-[1,2,4]triazolo[1,5-a]pyrimidin-7(4H)-one]	≤ 10
O=c1cc(-c2ccc3[nH]nnc3c2)[nH]c2nc(-c3ccccc3)nn12 [Example 41, 5-(1H-Benzo[d][1,2,3]triazol-5-yl)-2-phenyl-[1,2,4]triazolo[1,5-a]pyrimidin-7(4H)-one]	≤ 10
O=c1cc(-c2ccc3[nH]nnc3c2)[nH]c2nc(-c3cccc(Cl)c3)nn12 [Example 13, 5-(1H-Benzo[d][1,2,3]triazol-5-yl)-2-(3-chlorophenyl)-[1,2,4]triazolo[1,5-a]pyrimidin-7(4H)-one]	≤ 10
COc1ccc(-c2cc(=O)n3nc(Cc4ccccc4)nc3[nH]2)cc1 [Example 19, 2-Benzyl-5-(4-methoxyphenyl)-[1,2,4]triazolo[1,5-a]pyrimidin-7(4H)-one]	≤ 10
CCn1ncc2cc(-c3cc(=O)n4nc(-c5ccc(Cl)cc5)nc4[nH]3)ccc21 [Example 42, 2-(4-Chlorophenyl)-5-(1-ethyl-1H-indazol-5-yl)-[1,2,4]triazolo[1,5-a]pyrimidin-7(4H)-one]	≤ 10
O=c1cc(-c2ccc3[nH]ncc3c2)[nH]c2nc(-c3ccccn3)nn12 [Example 3, 5-(1H-Indazol-5-yl)-2-(pyridin-2-yl)-[1,2,4]triazolo[1,5-a]pyrimidin-7(4H)-one]	≤ 10
O=c1cc(-c2ccc3c(c2)OCCO3)[nH]c2nc(-c3ccccn3)nn12 [Example 28, 5-(2,3-Dihydrobenzo[b][1,4]dioxin-6-yl)-2-(pyridin-2-yl)-[1,2,4]triazolo[1,5-a]pyrimidin-7(4H)-one]	≤ 10
O=c1cc(-c2ccc3[nH]nnc3c2)[nH]c2nc(-c3ccc(Cl)cc3)nn12 [Example 39, 5-(1H-Benzo[d][1,2,3]triazol-5-yl)-2-(4-chlorophenyl)-[1,2,4]triazolo[1,5-a]pyrimidin-7(4H)-one]	≤ 10
CNC(=O)c1nc2[nH]c(-c3ccc4[nH]nnc4c3)cc(=O)n2n1 [Example 7, 5-(1H-Benzo[d][1,2,3]triazol-5-yl)-N-methyl-7-oxo-4,7-dihydro-[1,2,4]triazolo[1,5-a]pyrimidine-2-carboxamide]	≤ 10
COc1ccc(-c2cc(=O)n3nc(C)nc3[nH]2)cc1 [Example 27, 5-(4-Methoxyphenyl)-2-methyl-[1,2,4]triazolo[1,5-a]pyrimidin-7(4H)-one]	≤ 10
